Measurements from the NIST ThermoML archive (doi:10.1021/je400849a).
± gives the expanded uncertainty stated by the source.

How the values were obtained:
[1] = refractive index (Na D-line) (dimensionless); settings: 101.33 kPa, Liquid, Standard Abbe refractometry
[2] = 101.33 kPa, Liquid; for mass density: Vibrating tube method

CCCCCCCCCCCCOS(=O)(=O)[O-].CCCCCCCCCCn1cc[n+](CCC#N)c1 [3-(2-cyanoethyl)-1-decylimidazolium dodecylsulfate]
Settings	mass density, [2] [kg/m3]	refractive index, [1]	viscosity, [2] [mPa·s]
293.15 K	1053 ± 2.2	–	–
298.15 K	1050.4 ± 2.2	1.47447 ± 0.00068	–
303.15 K	1046.9 ± 2.1	1.47296 ± 0.00068	16145 ± 2500
308.15 K	1043.3 ± 2.1	1.47142 ± 0.00068	10417 ± 1500
313.15 K	1041.8 ± 2.1	1.46972 ± 0.00068	6231 ± 820
318.15 K	1038.6 ± 2.1	1.46813 ± 0.00068	3951 ± 470
323.15 K	1036.1 ± 2.1	1.46678 ± 0.00068	2583 ± 280
328.15 K	1034.3 ± 2.1	1.46532 ± 0.00068	1757 ± 170
333.15 K	1032.5 ± 2.1	1.46391 ± 0.00068	1252 ± 110
338.15 K	1029.9 ± 2.1	–	904 ± 72
343.15 K	1027.3 ± 2.1	–	588 ± 40
348.15 K	1025.8 ± 2.1	–	418 ± 25
353.15 K	1023.9 ± 2.1	–	296 ± 15

CCCCCCCCCCn1cc[n+](CCC#N)c1.O=C([O-])c1cccc(S(=O)(=O)O)c1 [3-(2-cyanoethyl)-1-decylimidazolium 3-sulfobenzoate]
Settings	mass density, [2] [kg/m3]	refractive index, [1]	viscosity, [2] [mPa·s]
293.15 K	1136.6 ± 2.8	–	–
298.15 K	1133.5 ± 2.8	1.51306 ± 0.00071	17650 ± 2800
303.15 K	1129.9 ± 2.8	1.51163 ± 0.00071	11449 ± 1700
308.15 K	1126.3 ± 2.8	1.50998 ± 0.00071	7159 ± 960
313.15 K	1123.2 ± 2.8	1.50871 ± 0.00071	4606 ± 570
318.15 K	1119.8 ± 2.7	1.50706 ± 0.00071	3028 ± 340
323.15 K	1116.2 ± 2.7	1.50582 ± 0.00071	1977 ± 200
328.15 K	1112.7 ± 2.7	1.5045 ± 0.00071	1431 ± 130
333.15 K	1109.5 ± 2.7	1.50322 ± 0.00071	944 ± 76
338.15 K	1105.9 ± 2.7	–	623 ± 44
343.15 K	1102.6 ± 2.6	–	431 ± 26
348.15 K	1099.3 ± 2.6	–	294 ± 15
353.15 K	1095.8 ± 2.6	–	198 ± 8

CCCCCCCCCCCCOS(=O)(=O)[O-].CCCCn1cc[n+](CCC#N)c1 [1-butyl-3-(2-cyanoethyl)-1H-imidazol-3-ium dodecyl sulfate]
Settings	mass density, [2] [kg/m3]	refractive index, [1]	viscosity, [2] [mPa·s]
293.15 K	1128.9 ± 1.9	–	13007 ± 2000
298.15 K	1123.2 ± 1.8	1.48791 ± 0.00059	7875 ± 1100
303.15 K	1119.8 ± 1.8	1.48619 ± 0.00059	4746 ± 580
308.15 K	1116.1 ± 1.8	1.48443 ± 0.00059	2938 ± 320
313.15 K	1112.2 ± 1.8	1.48232 ± 0.00059	1740 ± 170
318.15 K	1108.9 ± 1.8	1.48009 ± 0.00059	1144 ± 98
323.15 K	1105 ± 1.8	1.47842 ± 0.00059	768 ± 57
328.15 K	1101.9 ± 1.8	1.47695 ± 0.00059	485 ± 30
333.15 K	1097.7 ± 1.8	1.47487 ± 0.00059	338 ± 18
338.15 K	1093.6 ± 1.8	–	235 ± 10
343.15 K	1089.7 ± 1.8	–	162 ± 6
348.15 K	1086.3 ± 1.7	–	114 ± 3
353.15 K	1082.2 ± 1.7	–	76 ± 1

CCCCn1cc[n+](CCC#N)c1.O=S(=O)([O-])c1ccccc1 [1-butyl-3-(2-cyanoethyl)-1H-imidazolium benzenesulfonate]
Settings	mass density, [2] [kg/m3]	refractive index, [1]	viscosity, [2] [mPa·s]
293.15 K	1240.3 ± 2.3	–	4612 ± 840
298.15 K	1236.8 ± 2.3	1.53378 ± 0.00061	2752 ± 450
303.15 K	1233.4 ± 2.3	1.53237 ± 0.00061	1806 ± 260
308.15 K	1230.2 ± 2.3	1.53113 ± 0.00061	1203 ± 160
313.15 K	1226.3 ± 2.2	1.52975 ± 0.00061	792 ± 89
318.15 K	1223.7 ± 2.2	1.52824 ± 0.00061	505 ± 48
323.15 K	1220.3 ± 2.2	1.52684 ± 0.00061	321 ± 25
328.15 K	1217.1 ± 2.2	1.52544 ± 0.00061	214 ± 13
333.15 K	1213.5 ± 2.2	1.52403 ± 0.00061	152 ± 7
338.15 K	1210.1 ± 2.2	–	109 ± 4
343.15 K	1207.1 ± 2.2	–	78 ± 2
348.15 K	1204.4 ± 2.2	–	54 ± 1
353.15 K	1201.3 ± 2.2	–	38 ± 1
